# Reference: patent publication US20250257060A1, “OXADIAZOLE COMPOUND, PHARMACEUTICAL COMPOSITION COMPRISING SAME, AND USE THEREOF” (SUZHOU GENHOUSE BIO CO., LTD., priority 2022, published 2025)
# Where two headings read alike, the source gives them in different places.
# Columns and labels:
# [1] = Brain-to-blood drug concentration ratio of mice; assay type: in vivo; conditions: mouse, 5 mg/kg PO
# Method: On the day of administration, mice were weighed for actual body weight and the administration volume was calculated. In each group of 9 mice, the compound was administered by single intravenous (IV) injection or intragastric (PO) administration. Whole blood samples were collected via the orbit at prescribed time points. After blood sample collection, the samples were immediately transferred to labeled commercial sample tubes containing K2-EDTA (0.85-1.15 mg), followed by centrifugation (3200×g, 4° C., 10 min) and plasma collection. The plasma was transferred to a pre-cooled centrifuge tube, frozen in dry ice, and stored in an ultra-low temperature freezer at −60° C. or lower until the LC-MS/MS analysis. 20 μL of a plasma sample or brain tissue homogenate was taken and 80 μL of an internal standard solution (50 ng/mL solution of propafenone in acetonitrile) was added. The plate was sealed with a film sealer at 165° C., shaken on a micro oscillator (maximum vibration speed) for 10 min, and centrifuged at 4000 rpm for 20 min using a low-speed benchtop centrifuge, 10 μL of supernatant was transferred and 90 μL of acetonitrile was added. The mixture was vortexed and mixed well, and then the plate was sealed with the film sealer at 165° C. After the mixture was vortexed and mixed well, 1 μL of supernatant was taken for LC-MS/MS analysis. Plasma drug concentration data for the compounds were processed in a non-compartmental model using WinNonlin Version 6.3 (Pharsight, Mountain View, CA) pharmacokinetic software. The relevant pharmacokinetic parameters were calculated by a linear logarithmic trapezoid method.
# Data processing: brain-to-blood drug concentration ratio of mice at the same time point=drug concentration in brain tissue/drug concentration in plasma
# [2] = Pharmacokinetic test in mice (IV and PO); assay type: in vivo, BALB/c mice; conditions: for Cmax / AUC(0-inf) / AUC(0-t) / MRT inf / Vd / Tmax: BALB/c, mouse, plasma; for MRT inf: read-out: MRT(0-∞); for Vd: read-out: Vz
# Method: In this example, the pharmacokinetic behavior of the compounds after intravenous injection (IV) and intragastric (PO) administration in BALB/c mice was tested.
# On the day of administration, mice were weighed for actual body weight and the administration volume was calculated. Each compound was tested in two groups with 3 mice in each group, one group administered by single intravenous injection and the other group of mice by single intragastric administration. Whole blood samples were collected via the orbit at prescribed time points (0.25 h, 0.5 h, 1 h, 2 h, 4 h, 8 h, and 24 h after administration). After blood sample collection, the samples were immediately transferred to labeled commercial sample tubes containing K2-EDTA (0.85-1.15 mg), followed by centrifugation (3200×g, 4° C., 10 min) and plasma collection. The plasma was transferred to a pre-cooled centrifuge tube, frozen in dry ice, and stored in an ultra-low temperature freezer at −60° C. or lower until the LC-MS/MS analysis.
# Plasma concentrations were determined by a LC-MS/MS method. Plasma drug concentration data for compounds 1 and 2 were processed in a non-compartmental model using WinNonlin Version 6.3 (Pharsight, Mountain View, CA) pharmacokinetic software. The relevant pharmacokinetic parameters were calculated by a linear logarithmic trapezoid method.
# [3] = system: acetylation level of α-tubulin in HCT116 cells; experiment: Assay on acetylation level of α-tubulin, HCT116 cells; assay type: cell-based; conditions: Homo sapiens, HCT-116, 6 h
# Method: A375/HCT116/HCC827 cells at a logarithmic growth phase were taken, digested with a […] (trypsin), centrifuged, counted, and plated in a 96-well plate at an appropriate cell density (30,000 cells/well) at 100 µL/well, and an appropriate amount of PBS was added around the plate for water sealing. The next day, the cells were treated with the compounds at different concentrations (starting at 100 μM, 5-fold dilution, 9 concentration gradients). After 6 h, the medium was pipetted out and the cells were washed twice with 100 μL of PBST. The cells were then immobilized in 4% paraformaldehyde, and the plate was incubated at room temperature for 20 min. The stationary liquid was discarded and the cells were washed with PBST. 150 μL of special blocking buffer (containing 1% Triton-100) was added to each well for blocking at room temperature for 2 h, and the plate was washed with PBS to remove excess blocking buffer. α-tubulin (DM1A) mouse mAb and acetyl-α-tubulin (Lys40) (D20G3) XP rabbit mAb were diluted at a 1:2000 ratio with a blocking buffer containing 0.033% Triton-100. The dilutions were added to the 96-well plate and the plate was incubated overnight at 4° C. Meanwhile, a blank control group was set. The next day, the plate was washed twice with PBST. Secondary anti-mouse IgG (H+L) (DyLight™ 680 conjugate) and anti-rabbit IgG (H+L) (DyLight™ 800 conjugate) were diluted at a 1:2000 ratio with a blocking buffer containing 0.033% Triton-100. The dilutions were added to a 96-well plate and the plate was incubated at room temperature for 2 h. The plate was washed twice with PBST and once with PBS. Fluorescence signals at 700 nm and 800 nm were detected with a Li-COR Odyssey two-color near-infrared laser imager.
# [4] = Phase I metabolic stability in rat liver microsomes (RLMs); assay type: in vitro ADME, Sprague-Dawley rats; conditions: RLM
# Method: (§1) Phase I metabolic stability of the test compounds in liver microsomes of CD-1 mice (MLMs), Sprague-Dawley rats (RLMs), beagle dogs (DLMs), cynomolgus monkeys (CLMs), and humans (HLMs) was evaluated.
# (§2) The animal and human liver microsomes used in the test system were purchased from Xenotech, Corning, or other qualified suppliers and stored in a freezer at a temperature below −60° C. prior to use.
# (§3) The test samples and control compounds were separately incubated with animal and human liver microsomes at 37±1° C. for a period of incubation time up to 60 min. The samples were removed at the indicated time points, and the reaction was stopped with acetonitrile or other organic solvents containing an internal standard. After centrifugation, the resulting supernatants were assayed by liquid chromatography-tandem mass spectrometry (LC-MS/MS).
# (§4) 73.21 g of dipotassium hydrogenphosphate trihydrate and 10.78 g of potassium dihydrogenphosphate were dissolved in 4000 mL of ultrapure water. The solution was adjusted to pH 7.40±0.10 with 10% phosphoric acid or 1 M potassium hydroxide to make a final concentration of 100 mM.
# (§5) The test sample powder was prepared into a stock solution at a certain concentration with DMSO or other organic solvents, which was then further diluted with a proper organic solvent.
# (§6) Microsomes of each species were diluted into a 2× working solution with a 100 mM potassium phosphate buffer. The final concentration of the microsomes in the reaction system was 0.5 mg/mL.
# (§7) An appropriate amount of nicotinamide adenine dinucleotide phosphate (NADP) and isocitric acid (ISO) powder was weighed out, dissolved in a magnesium chloride solution, and shaken and mixed well. An appropriate amount of isocitrate dehydrogenase (IDH) was added, and the mixture was mixed well by gently turning upside down. The final concentrations in the reaction system were: 1 mM NADP, 1 mM magnesium chloride, 6 mM ISO, and 1 unit/mL IDH.
# (§8) Incubation was performed in a 96-well plate. Eight incubation plates were prepared and designated T0, T5, T15, T30, T45, T60, Blank60, and NCF60, respectively. The first 6 plates corresponded to reaction time points of 0, 5, 15, 30, 45, and 60 min, respectively. No test sample or control compound was added to the Blank60 plate, and samples were taken after 60 min of incubation. In the NCF60 plate, incubation was performed for 60 min using the potassium phosphate buffer instead of the NADPH regeneration system solution. Three replicates were made for samples in all conditions.
# (§9) The microsomes and the test sample or control compound were mixed, and then the incubation plates Blank60, T5, T15, T30, T45, and T60 except for TO and NCF60 were placed in a 37° C. water bath for pre-incubation for about 10 min. In the incubation plate TO, a stop solution was first added, followed by addition of the NADPH regeneration system working solution, and 98 μL of the potassium phosphate buffer was added to each sample well of the incubation plate NCF60 to initiate the reaction. After the pre-incubations of the incubation plates Blank60, T5, T15, T30, T45, and T60 were completed, 98 μL of the NADPH regeneration system working solution was added to each sample well to initiate the reaction. The reaction temperature was 37±1° C., the final volume of the reaction was 200 μL, and the reaction system included 0.5 mg/mL microsomes, […], 1 mM NADP, 6 mM ISO, and 1 unit/mL IDH.
# (§10) At 5 min, 15 min, 30 min, 45 min, and 60 min, a cold stop solution containing an internal standard was added to the reaction plate to stop the reaction.
# (§11) All the reaction plates after the reaction was stopped were shaken well and centrifuged at 3220×g at 4° C. for 20 min. After the supernatant was diluted according to a certain proportion, LC-MS/MS analysis was performed.
# (§12) Sample analysis was performed by the liquid chromatography-tandem mass spectrometry (LC-MS/MS) method without standard curves and quality control samples. […]
# [5] = Phase I metabolic stability in mouse liver microsomes (MLMs); assay type: in vitro ADME, CD-1 mice; conditions: MLM
# Method: as §1, §2, §3, §4, §5, §6, §7, §8, §9, §10, §11, §12
# [6] = Phase I metabolic stability in human liver microsomes (HLMs); assay type: in vitro ADME, humans; conditions: HLM
# Method: as §1, §2, §3, §4, §5, §6, §7, §8, §9, §10, §11, §12
# [7] = buffer instead of NADPH regeneration system, 60 min
# [8] = Sprague-Dawley, rat, liver microsomes, pH 7.4
# [9] = CD-1, mouse, liver microsomes, pH 7.4
# [10] = human, liver microsomes, pH 7.4
compound,measurement,setting,value
O=C(N[C@@H]1COCC[C@H]1N1Cc2ccc(-c3nnc(C(F)F)o3)cc2S1(=O)=O)C(F)F [Compound 13],concentration at 1 h,"[1]; brain, 1 h, read-out: Brain drug concentration",218 ng/mL
same,concentration at 2 h,"[1]; brain, 2 h, read-out: Brain drug concentration",174 ng/mL
same,Kp at 1 h,"[1]; brain/plasma, 1 h",0.07
same,Kp at 2 h,"[1]; brain/plasma, 2 h",0.09
same,concentration at 1 h,"[1]; plasma, 1 h, read-out: Blood drug concentration",2950 ng/mL
same,concentration at 2 h,"[1]; plasma, 2 h, read-out: Blood drug concentration",1780 ng/mL
same,Cmax,"[2]; po, 5 mg/kg, read-out: C0/Cmax",7.13 µM
same,AUC(0-inf),"[2]; mice, IV 1 mg/kg",4.53 µM·h
same,AUC(0-t),"[2]; mice, IV 1 mg/kg",4.42 µM·h
same,Cmax,"[2]; mice, IV 1 mg/kg (C0)",3.05 µM
same,MRT inf,"[2]; mice, IV 1 mg/kg",1.85 h
same,Vd,"[2]; mice, IV 1 mg/kg",1.05 L/kg
same,AUC(0-inf),"[2]; mice, PO 5 mg/kg",22 µM·h
same,AUC(0-t),"[2]; mice, PO 5 mg/kg",21.4 µM·h
same,Tmax,"[2]; mice, PO 5 mg/kg",0.5 h
same,MRT inf,"[2]; mice, PO 5 mg/kg",2.63 h
same,CLz,"[2]; mice, IV 1 mg/kg",8 mL/min/kg
same,t½z,"[2]; mice, IV 1 mg/kg",1.52 h
same,F,"[2]; mice, PO 5 mg/kg",97.0%
same,t½z,"[2]; mice, PO 5 mg/kg",1.52 h
same,EC50,[3],133 nM
O=C(N[C@@H]1CCOC[C@H]1N1Cc2ccc(-c3nnc(C(F)F)o3)cc2S1(=O)=O)C1(C(F)(F)F)CC1 [Compound 65],EC50,[3],467 nM
O=C(N[C@@H]1CCOC[C@H]1N1Cc2ccc(-c3nnc(C(F)F)o3)cc2S1(=O)=O)C(F)(F)C(F)(F)F [Compound 66],EC50,[3],322 nM
O=S1(=O)c2cc(-c3nnc(C(F)F)o3)ccc2CN1C(c1ccccn1)[C@H](O)c1ccccn1 (stereo partly shown) [Compound 83],Remaining rate (NCF = 60 min),[4]; [7],88.49%
same,Remaining rate (T = 60 min),"[4]; with NADPH, 60 min",36.99%
same,CLint scaled at 1 µM,[4]; [8],58.6 mL/min/kg
same,half-life at 1 M,[4]; [8],0.706 h
same,Cmax,"[2]; po, 10 mg/kg, read-out: C0/Cmax",12 µM
same,AUC(0-inf),"[2]; mice, IV 2 mg/kg",8.78 µM·h
same,AUC(0-t),"[2]; mice, IV 2 mg/kg",8.61 µM·h
same,Cmax,"[2]; mice, IV 2 mg/kg (C0)",5.27 µM
same,MRT inf,"[2]; mice, IV 2 mg/kg",2.06 h
same,Vd,"[2]; mice, IV 2 mg/kg",1.01 L/kg
same,AUC(0-inf),"[2]; mice, PO 10 mg/kg",63.7 µM·h
same,AUC(0-t),"[2]; mice, PO 10 mg/kg",50.5 µM·h
same,Tmax,"[2]; mice, PO 10 mg/kg",0.5 h
same,MRT inf,"[2]; mice, PO 10 mg/kg",4.57 h
same,CLz,"[2]; mice, IV 2 mg/kg",7.82 mL/min/kg
same,t½z,"[2]; mice, IV 2 mg/kg",1.493 h
same,F,"[2]; mice, PO 10 mg/kg",117.4%
same,t½z,"[2]; mice, PO 10 mg/kg",3.323 h
same,CLint scaled at 1 µM,[5]; [9],41.4 mL/min/kg
same,half-life at 1 M,[5]; [9],2.2 h
same,Remaining rate (NCF = 60 min),[5]; [7],84.39%
same,Remaining rate (T = 60 min),"[5]; with NADPH, 60 min",72.27%
same,Remaining rate (NCF = 60 min),[6]; [7],84.68%
same,Remaining rate (T = 60 min),"[6]; with NADPH, 60 min",82.70%
same,CLint scaled at 1 µM,[6]; [10],6.43 mL/min/kg
same,half-life at 1 M,[6]; [10],4.51 h
